# Where two headings read alike, the source gives them in different places. Peptide text beside a SMILES is read from it.
# Tests used:
# [1] = target: T1, PD1:PDL1 interaction (Homo sapiens, UniProt Q15116); assay: PD1/PDL1 immunoblocking ELISA (BPS Bioscience kit cat # 72005); assay type: binding; conditions: for LE (ligand efficiency): LE = -RTln(EC50)/HA, HA = non-hydrogen atoms omitting the strap (RWV•••VWE)
# T1 construct: purchased BPS Bioscience 72005
# Method: Original loops with Phe/Trp and their Gly-derived analogs. Experimental EC50 values from inhibitory dose–response curves. Error bars indicate the mean ± SD, (n = 3). […]
# SDS -Pages, buffers, and stain were purchased from Fisher
# 8. Immunoblocking ELISA Assay
# Peptide inhibitor stock solutions were prepared in the concentration range of approximately 1-5 mM in DMSO. […]
# plate was then washed and blocked with blocking buffer for 1 h at room temperature. Inhibitor solutions (ranging from 0.01 to 100 μM) and a blank solution (DMSO/PBS buffer) were added to designated wells. To initiate the […]
# inhibitor solutions. After a 2 h incubation at room temperature, the plate was washed and blocked again for 10 min. Streptavidin-HRP (diluted at 1 : 1000) was added and incubated for 1 h at room temperature with gentle shaking. The plate was washed and blocked once more for 10 min. ELISA ECL substrate was added, and the resulting chemoluminescence was immediately measured in a luminometer (FLUOstar OPTIMA, BMG Labtech).
# The luminescence value of the blank was subtracted from all readings according to the manufacturer's
# [2] = Variable-temperature CD melting curves (CD-melts at 228±2 nm and 202±2 nm), individual and global two-state fits; assay type: physicochemical; conditions: for ΔGF0: CD-melt at 228±2 nm, individual two-state Gibbs-Helmholtz fit (Origin 9.0), phosphate buffer 15 mM pH 6.5 ± MeOH; for ΔGF0 / DHm (fitted value, results from OriginPro) / Tm (fitted value, results from OriginPro): 0-95 °C; for Tm / Hairpin %-fold 291K / Hairpin %-fold 310K: Table S5, individual fit; for Tm: 228±2 nm; for -TΔSF0 / ΔCpF0 / ΔHF0 / ΔHm: as E16; for VT-CD %-fold: folded fraction (χF) at 25 °C from CD-melts, (R) regular / (B) bulged fold; for VT-CD %-fold / VT-CD Tm (°C): phosphate buffer 15 mM pH 6.5, up to 20% MeOH; for VT-CD Tm (°C): melting temperature from CD-melts; for DHm, fitted value from OriginPro / Tm, fitted value from OriginPro: xlsx sheet of the peptide, individual fit of CD-melt; for DHm (fitted value, results from OriginPro) / Tm (fitted value, results from OriginPro): two-state fit of the CD melt θ - θcoil(95) vs T, l 0.1 cm, peptide c 3.2e-5 to 5e-5 M
# Method: Recently, our laboratory brought forward a novel synthetic technology for the synthesis of acyclic β-hairpins with long loops. […] To compare hairpins’ stability, both regular (R) and bulged (B) scaffolds were crafted around a flexible 10-residue model loop (G4K2G4) and analyzed by CD (circular dichroism) spectroscopy (Fig. 2(A), see ESI, ^† Table S5). The […] structure of these model scaffolds 1avs.2a in solution were recorded in the far-UV CD spectra. […] The CD-exciton intensity was therefore used as a global probe to determine the %-folding of ADAPTins and to obtain melting curves corresponding to the hairpin fraying mechanism upon a gradual increase of temperature (0 to 95 °C).[68] […] In addition, NMR (nuclear magnetic resonance) chemical shifts were measured to determine variations in backbone […] structures (Fig. 2(B)). Secondary chemical shift deviations (CSDs) were calculated against random coil values[69] for both ADAPTin scaffolds 1vs.2 to verify that the hairpins were folded and if any variation of conformational rigidity exist within the loops. […]
# Mass Spectrometer coupled to a Vanquish™ Neo UHPLC System (Thermo Scientific™). Peptide solutions for circular dichroism (CD) were prepared within a concentration range of 15-120 µM in a phosphate buffer (15 mM, […]
# measured accurately using a JASCO V-670 spectrophotometer relied on the combined molar absorptivity of Trp (ε280 = 5580 M-1 .cm-1 per Trp) and Tyr (ε280 = 1280 M-1 .cm-1 per Tyr) to determine each sample's concentration.
# CD spectra were recorded using a JASCO J-810 Spectropolarimeter equipped with a temperature controller module JASCO PFD-425S. Raw CD melting curves were processed in SpectraGryph, and fitting was performed in OriginPro 9.0 (Originlab Corporation, U.S.A.). NMR samples were prepared by reconstituting freeze -dried peptides (~ 1-5 mg) in mixture of water and DMSO -d6 (90:10 v/v) using 2,2-dimethyl-2-silapentane-5-sulfonate (DSS) as internal standard for chemical shifts (0 ppm), and spectra were recorded at 291 K (18 °C) unless otherwise stated. Chemical shifts ( δ) are reported in ppm. Samples for NMR experiments were prepared in a range of 3-10 mM of peptide in solution unless otherwise noted.
# [3] = [PD1•PDL1] blocking EC50, Fig. 3B, cut-off bars of congeneric pairs (Phe/Trp vs Gly), n = 3
# [4] = ELISA, mean of three independent experiments, read-out: EC50 Value
# T1 sequence (Q15116 25-167 limits assumed): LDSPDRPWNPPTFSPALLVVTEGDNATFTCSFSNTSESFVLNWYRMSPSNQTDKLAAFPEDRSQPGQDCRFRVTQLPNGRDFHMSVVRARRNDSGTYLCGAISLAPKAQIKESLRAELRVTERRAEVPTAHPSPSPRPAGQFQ
Compound,LE (ligand efficiency) [1],"EC50 ([1]; PD1:PDL1 inhibition EC50, ELISA, PDL1-coated plate, biotin-labeled human PD-1, 2 h rt, chemiluminescence, Hill fit, mean ± SD, n = 3, SD)","EC50 [1, 3]",ΔGF0 [2],Tm [2],Hairpin %-fold 291K [2],Hairpin %-fold 310K [2],-TΔSF0 [2],ΔCpF0 [2],ΔHF0 [2],VT-CD %-fold [2],VT-CD Tm (°C) [2],"DHm, fitted value from OriginPro [2]","Tm, fitted value from OriginPro [2]","EC50 [1, 4]",ΔHm [2],"DHm (fitted value, results from OriginPro) [2]","Tm (fitted value, results from OriginPro) [2]","TM (°C) ([2]; Fig. 2, CD-melts of regular vs bulged scaffolds)"
CSCC[C@H](NC(=O)[C@H](CC(=O)O)NC(=O)[C@H](Cc1ccccc1)NC(=O)[C@H](CCCNC(=N)N)NC(=O)[C@H](Cc1ccc(O)cc1)NC(=O)[C@H](CC(=O)O)NC(=O)[C@H](CCCNC(=N)N)NC(=O)[C@H](Cc1c[nH]c2ccccc12)NC(=O)[C@@H](NC(=O)[C@H](Cc1c[nH]c2ccccc12)NC(=O)[C@@H](N)CCCNC(=N)N)C(C)C)C(=O)NCC(=O)N[C@@H](Cc1ccccc1)C(=O)N[C@@H](CC(=O)O)C(=O)N[C@@H](Cc1c[nH]c2ccccc12)C(=O)N[C@H](C(=O)N[C@@H](Cc1c[nH]c2ccccc12)C(=O)N[C@@H](CCC(=O)O)C(=O)O)C(C)C [1c] (H-RWVWRDYRFDMGFDWVWE-OH),0.06,12.3 ± 1.5 µM,> 5 µM,0.31 ± 0.01 kcal/mol,-2.99 oC,40 ± 1%,32 ± 1%,3.66 ± 0.01 kcal/mol,-23 ± 0.4 cal.deg-1.mol-1,-3.35 ± 0.01 kcal/mol,40% (R),<0 °C,-2.72263 kcal/mol,270.158 K,–,–,–,–,–
CSCC[C@H](NC(=O)[C@H](CC(=O)O)NC(=O)[C@H](Cc1ccccc1)NC(=O)[C@H](CCCNC(=N)N)NC(=O)[C@H](Cc1ccc(O)cc1)NC(=O)[C@H](CC(=O)O)NC(=O)[C@H](CCCNC(=N)N)NC(=O)[C@H](CCCNC(=N)N)NC(=O)[C@H](Cc1c[nH]c2ccccc12)NC(=O)[C@@H](NC(=O)[C@H](Cc1c[nH]c2ccccc12)NC(=O)[C@@H](N)CCCNC(=N)N)C(C)C)C(=O)NCC(=O)N[C@@H](Cc1ccccc1)C(=O)N[C@@H](CC(=O)O)C(=O)N[C@@H](Cc1ccc(O)cc1)C(=O)N[C@@H](Cc1c[nH]c2ccccc12)C(=O)N[C@H](C(=O)N[C@@H](Cc1c[nH]c2ccccc12)C(=O)N[C@@H](CCC(=O)O)C(=O)O)C(C)C [1d] (H-RWVWRRDYRFDMGFDYWVWE-OH),0.05,–,–,0.010 ± 0.001 kcal/mol,34.9 oC,48 ± 1%,49 ± 1%,-1.08 ± 0.04 kcal/mol,-189 ± 2 cal.deg-1.mol-1,1.09 ± 0.04 kcal/mol,49% (R),–,-0.0374427 kcal/mol,303.944 K,6.8 µM,-0.037 ± 0.07 kcal/mol,–,–,–
CC(C)[C@H](NC(=O)CNC(=O)[C@H](CO)NC(=O)[C@H](CO)NC(=O)[C@H](CC(=O)O)NC(=O)[C@@H]1CCCN1C(=O)[C@H](CO)NC(=O)[C@H](Cc1c[nH]c2ccccc12)NC(=O)[C@@H](NC(=O)[C@H](Cc1c[nH]c2ccccc12)NC(=O)[C@@H](N)CCCNC(=N)N)C(C)C)C(=O)N[C@@H](C)C(=O)N[C@@H](Cc1ccc(O)cc1)C(=O)N[C@@H](Cc1c[nH]c2ccccc12)C(=O)N[C@H](C(=O)N[C@@H](Cc1c[nH]c2ccccc12)C(=O)N[C@@H](CCC(=O)O)C(=O)O)C(C)C [1e] (H-RWVWSPDSSGVAYWVWE-OH),0.10,–,–,-0.90 ± 0.01 kcal/mol,58.3 oC,85 ± 1%,74 ± 1%,5.60 ± 0.06 kcal/mol,-148 ± 4 cal.deg-1.mol-1,-6.50 ± 0.06 kcal/mol,85% (R),58 °C,–,–,0.27 µM,-11.5 ± 0.05 kcal/mol,-11.4534 kcal/mol,331.438 K,–
CC[C@H](C)[C@H](NC(=O)[C@H](CC(=O)O)NC(=O)[C@H](CC(C)C)NC(=O)[C@H](CC(=O)O)NC(=O)[C@H](CCCNC(=N)N)NC(=O)[C@H](Cc1c[nH]c2ccccc12)NC(=O)[C@@H](NC(=O)[C@H](Cc1c[nH]c2ccccc12)NC(=O)[C@@H](N)CCCNC(=N)N)C(C)C)C(=O)N[C@@H](C)C(=O)N[C@H](C(=O)N[C@H](C(=O)N[C@@H](CCCNC(=N)N)C(=O)N[C@@H](CC(=O)O)C(=O)N[C@@H](Cc1ccc(O)cc1)C(=O)N[C@@H](Cc1c[nH]c2ccccc12)C(=O)N[C@H](C(=O)N[C@@H](Cc1c[nH]c2ccccc12)C(=O)N[C@@H](CCC(=O)O)C(=O)O)C(C)C)[C@@H](C)O)[C@@H](C)O [1f] (H-RWVWRDLDIATTRDYWVWE-OH),0.06,–,–,-0.49 ± 0.01 kcal/mol,39.4 oC,78 ± 1%,53 ± 1%,9.96 ± 0.06 kcal/mol,-15 ± 3 cal.deg-1.mol-1,-10.5 ± 0.06 kcal/mol,78% (R),39 °C,–,–,3.36 µM,-10.7 ± 0.04 kcal/mol,-10.6792 kcal/mol,312.539 K,–
CSCC[C@H](NC(=O)[C@H](CC(=O)O)NC(=O)CNC(=O)[C@H](CCCNC(=N)N)NC(=O)[C@H](Cc1ccc(O)cc1)NC(=O)[C@H](CC(=O)O)NC(=O)[C@H](CCCNC(=N)N)NC(=O)[C@H](CCCNC(=N)N)NC(=O)[C@H](C)NC(=O)[C@@H](NC(=O)[C@H](Cc1c[nH]c2ccccc12)NC(=O)[C@@H](N)CCCNC(=N)N)C(C)C)C(=O)NCC(=O)N[C@@H](Cc1ccccc1)C(=O)N[C@@H](CC(=O)O)C(=O)N[C@@H](Cc1ccc(O)cc1)C(=O)N[C@@H](Cc1c[nH]c2ccccc12)C(=O)N[C@H](C(=O)N[C@@H](Cc1c[nH]c2ccccc12)C(=O)N[C@@H](CCC(=O)O)C(=O)O)C(C)C [2b] (H-RWVARRDYRGDMGFDYWVWE-OH),0.06,–,> 5 µM,-1.24 ± 0.01 kcal/mol,59.1 oC,92 ± 1%,81 ± 1%,7.65 ± 0.03 kcal/mol,-193 ±1 cal.deg-1.mol-1,-8.89 ± 0.03 kcal/mol,92% (B),59 °C,-15.492 kcal/mol,332.248 K,7.05 µM,–,–,–,59 °C
